Measurements published in EP0509769B1, “Heterocyclic amides having HLE inhibiting activity” (ZENECA LIMITED, priority 1991, dated 1992).

Tests used:
[1] = in vivo test (not specified further)
[2] = target: T1, human neutrophil elastase (HNE) (Homo sapiens, UniProt P08246); assay: Acute Hemorrhagic Assay: lung hemorrhage in hamsters after intratracheal HNE; format: in vivo, hamster; conditions: dose of 5 mg/kg by mouth, 30 min prior to administration of HNE; male Syrian hamsters
T1 construct: host or cells: exogenous human enzyme instilled into the trachea of male Syrian hamsters
T1 sequence (P08246 30-267): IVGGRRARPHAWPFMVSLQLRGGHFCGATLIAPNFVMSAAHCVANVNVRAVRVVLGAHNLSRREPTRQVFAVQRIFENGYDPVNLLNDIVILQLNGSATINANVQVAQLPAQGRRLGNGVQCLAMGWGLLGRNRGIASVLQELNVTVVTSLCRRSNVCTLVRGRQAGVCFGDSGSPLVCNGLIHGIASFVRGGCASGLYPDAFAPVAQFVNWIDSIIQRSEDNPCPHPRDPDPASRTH
Source text: This assay relies on monitoring only the amount of hemorrhage in the lung following intratracheal administration of human neutrophil elastase (HNE). Hemorrhage is quantified by disrupting erythrocytes recovered in lung lavage fluid and comparing that to dilutions of whole hamster blood. […] Four hours after enzyme administration, the animals are killed with an overdose of pentobarbital sodium, the thorax opened and the lungs and trachea removed. The excised lungs are lavaged with three changes of 2 mL normal saline via a tracheal cannula. The recovered lavages are pooled, the volumes (about 5 mL) are recorded and the lavages stored at 4 °C until assayed. For calculation of the amount of blood in each sample, the thawed lavages and a sample of whole hamster blood are sonicated to disrupt erythrocytes and appropriately diluted into individual wells of a 96-well microtiter plate. The optical densities (OD) of the disrupted lavages and blood samples are determined at 405 nm. The (µL blood equivalents) / (mL lavage) are determined by comparing the OD of the test samples with the OD of the standard curve prepared from whole hamster blood. The total µL equivalents of blood recovered is determined by multiplying recovered lavage volume by the (µL blood equivalents) / (mL lavage) for each sample.

Row | SMILES | activity in an in vivo test [1] | inhibition of hemorrhage [2]
1 | CC(C)C(NC(=O)Cn1c(-c2ccccc2)ccc(N)c1=O)C(=O)C(F)(F)F (stereo not drawn) [Example 49, 2-(3-Amino-2-oxo-6-phenyl-1,2-dihydro-1-pyridyl)-N-(3,3,3-trifluoro1-isopropyl-2-oxopropyl)acetamide] | activity | –
2 | CC(C)C(NC(=O)Cn1c(-c2ccccc2)ccc(NC(=O)Cc2ccc(N)cc2)c1=O)C(=O)C(F)(F)F.Cl (stereo not drawn) [Example 159, 2-[3-(4-Aminophenylacetylamino)-2-oxo-6-phenyl-1,2-dihydro-1-pyridyl]-N-(3,3,3-trifluoro-1-isopropyl-2-oxopropyl)acetamide hydrochloride] | activity | –
3 | CC(C)C(NC(=O)Cn1c(-c2ccccc2)ccc(NC(=O)C(F)(F)F)c1=O)C(=O)C(F)(F)F (stereo not drawn) [Example 167, 2-(3-trifluoroacetylamino-2-oxo-6-phenyl-1,2-dihydro-1-pyridyl)-N-(3,3,3-trifluoro-1-isopropyl-2-oxopropyl)acetamide] | – | statistically significant inhibition of hemorrhage
